The subject of series [1] is NLRP6 inflammasome. The note with it: for taurine-mediated increase in IL-18 production: organoids, histamine and spermine supplemented in addition to taurine. As to the method:
(I, J) IL-18 production by WT (I) and Nlrp6^−/− (J) colonic organoids incubated with either taurine or taurine+histamine+spermine.
(K) Representative organoid images from experiments shown in (I) and (J).

Series [2] has as its target T1, colonic NLRP6 inflammasome (Mus musculus, UniProt Q91WS2).
T1 construct: in colon tissue obtained from WT mice drinking taurine for 14 days; from tissue; host or cells: colon of living WT mice (SPF for A4; germ-free for A5)
T1 sequence (Q91WS2 1-869): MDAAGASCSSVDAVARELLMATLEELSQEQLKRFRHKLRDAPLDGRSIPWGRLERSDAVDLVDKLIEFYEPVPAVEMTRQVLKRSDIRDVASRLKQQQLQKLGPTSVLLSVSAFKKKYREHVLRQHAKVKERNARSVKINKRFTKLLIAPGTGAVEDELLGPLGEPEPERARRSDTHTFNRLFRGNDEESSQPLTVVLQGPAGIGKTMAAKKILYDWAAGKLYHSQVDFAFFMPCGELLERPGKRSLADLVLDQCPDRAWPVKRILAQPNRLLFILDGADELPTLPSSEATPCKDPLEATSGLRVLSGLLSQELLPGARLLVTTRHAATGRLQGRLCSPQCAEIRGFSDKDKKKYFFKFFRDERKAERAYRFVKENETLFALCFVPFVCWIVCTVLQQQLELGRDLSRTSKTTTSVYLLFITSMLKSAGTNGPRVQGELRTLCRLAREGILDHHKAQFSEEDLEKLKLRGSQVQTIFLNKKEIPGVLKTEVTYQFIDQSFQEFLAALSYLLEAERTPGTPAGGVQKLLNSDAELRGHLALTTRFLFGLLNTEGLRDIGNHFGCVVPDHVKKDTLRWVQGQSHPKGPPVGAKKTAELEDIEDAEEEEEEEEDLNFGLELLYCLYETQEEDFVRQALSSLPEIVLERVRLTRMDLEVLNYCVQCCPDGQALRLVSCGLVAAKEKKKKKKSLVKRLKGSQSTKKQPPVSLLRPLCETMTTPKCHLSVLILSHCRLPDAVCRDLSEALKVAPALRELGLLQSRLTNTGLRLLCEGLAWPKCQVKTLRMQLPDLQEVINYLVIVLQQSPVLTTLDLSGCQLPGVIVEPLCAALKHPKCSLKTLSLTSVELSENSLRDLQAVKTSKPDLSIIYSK
Nature of the series: Metabolites in the drinking water of mice, colonic inflammasome readouts. It is filed as in vivo. The note with it: for colonic lamina propria hematopoietic cell populations: WT mice drinking for 14 days, FACS; for colonic caspase-1 activation (activated caspase-1 levels): WT mice, drinking water for 14 days. From the text: (A, B) Immunoblot analysis (A) and quantification (B) of pro-caspase-1 (p45) and cleaved caspase-1 (p20) in colon tissue obtained from WT mice drinking taurine for 14 days.
(C) IL-18 production by colon explants obtained from WT mice drinking taurine for 14 days.
(D) Ang4 expression in sorted epithelial cells (CD45^−EpCAM^+) obtained from WT mice drinking taurine for 14 days.
(I) IL-18 production by colon explants from WT, Asc^−/− or Nlrp6^−/− mice drinking taurine for 14 days.
(J, K) Immunoblot analysis (J) and quantification (K) of pro-caspase-1 (p45) and cleaved caspase-1 (p20) in colon tissue obtained from WT mice drinking histamine with or without spermine for 14 days.
Colons were excised and washed thoroughly with PBS, homogenized in RIPA buffer containing protease inhibitors, incubated for 20 min in 4° C. and centrifuged for 20 min, 14,000 rpm at 4° C. Samples were separated on 15% acrylamide gels and transferred onto nitrocellulose membranes. Western blot analysis was performed using anti-caspase 1 p20 polyclonal antibody (Adipogen, AG-20B-0042B-C100) and Goat anti mouse antibody (Jackson ImmunoResearch, 115-035-003). Band density was calculated using ImageJ software.
Concentrations of IL-18 in the serum or culture supernatants were measured using ELISA. Plates were coated over night with IL-18 (MBL, B004-2), incubated for 4 hours with supernatant or serum. Samples were then washed and plates were incubated with anti-mouse IL-18-biotin antibody (D048-6 MBL) for 1 hour and HRP-Avidin (BioLegend) for 1 hour before quantification.
Tissues were preserved in RNAlater solution (Ambion) and subsequently homogenized in Tri Reagent (Fox et al.). RNA was purified according to the manufacturer's instructions. Two microgram of total RNA was used to generate cDNA (HighCapacity cDNA Reverse Transcription kit; Applied Biosystems). RealTime-PCR was performed using gene-specific primer/probe sets (Applied Biosystems) and Kapa Probe Fast qPCR kit (Kapa Biosystems) on a Viia7 instrument (Applied Biosystems). PCR conditions were 95° C. for 20 s, followed by 40 cycles of 95° C. for 3 s and 60° C. for 30 s. Data were analyzed using the deltaCt method with hprt serving as the reference housekeeping gene.
To provide in-vivo validation to the above metabolite activities and to further characterize their effects on the host-microbiome interface, we administered taurine to mice in the drinking water. […] To test this notion directly, either LPS (a known ‘signal I’), taurine, or both were administered to GF WT mice. […] In contrast to taurine, in-vivo administration of histamine and spermine reduced the levels of activated caspase-1 (FIGS. 6J and 6K), while not altering the composition of hematopoietic cells in the lamina propria (FIG. 13D).

Series [3] relates to commensal bacteria. Nature of the series: Anaerobic microbiota cultures supplemented with metabolites. Conditions: anaerobic culturing. Also on record: species or system mouse.
Series [4] relates to intestinal microbiota. Nature of the series: 16S analysis of microbiota of mice given metabolites in drinking water. The format is in vivo, mouse. From the text:
Frozen fecal samples were processed for DNA isolation using the MoBio PowerSoil kit according to the manufacturer's instructions. For the 16S rRNA gene PCR amplification, ing of the purified fecal DNA was used for PCR amplification. Amplicons spanning the variable region 1/2 (V1/2) of the 16S rRNA gene were generated by using the following barcoded primers: Fwd 5′-XXXXXXXXAGAGTTTGATCCTGGCTCAG-3′ (SEQ ID NO: 1), Rev 5′-[…]-3′ (SEQ ID NO: 2), where X represents a barcode base. The reactions were subsequently pooled and cleaned (PCR clean kit, Promega), and the PCR products were then sequenced on an Illumina MiSeq in 500 bp paired-end method. The reads were then processed using the QIIME (Quantitative Insights Into Microbial Ecology, www(dot)qiime(dot)org) analysis pipeline as described (Caporaso et al., 2010; Elinav et al., 2011). In brief, fasta quality files and a mapping file indicating the barcode sequence corresponding to each sample were used as inputs, reads were split by samples according to the barcode, taxonomical classification was performed using the RDP-classifier, and an OTU table was created. Closed-reference OTU mapping was employed using the Greengenes database. Rarefaction was used to exclude samples with insufficient count of reads per sample. Sequences sharing 97% nucleotide sequence identity in the V2 region were binned into operational taxonomic units (97% ID OTUs). For beta-diversity, weighted unifrac measurements were plotted according to the two principal coordinates based on 1,000 reads per sample. The OTU tables used for our analyses are made accessible online.

Results on three molecules are retold here after patent US20190382827A1, “USE OF MICROBIAL METABOLITES FOR TREATING DISEASES” (Yeda Research and Development Co. Ltd., priority 2015, published 2019).

`NCCc1c[nH]cn1` [histamine]: in series [1], the “organoid (spheroid) growth or morphology” value is on record as “not affecting” and the “taurine-mediated increase in IL-18 production” value is “diminished”. Moreover, in series [2], the “colonic lamina propria hematopoietic cell populations” value was “not altering” and the “colonic caspase-1 activation (activated caspase-1 levels)” value (“colonic caspase-1 activation” below) is on record as “reduced”. Further, the “composition of anaerobic microbiota cultures” value in series [3] is “did not feature significant compositional alterations”. In addition, the “composition of the intestinal microbiota” value in series [4] (WT mice) was “induced compositional changes”.

For the molecule `NCCCNCCCCNCCCN` [spermine], in series [1], the “organoid (spheroid) growth or morphology” value is listed as “not affecting” and the “taurine-mediated increase in IL-18 production” value is “diminished”. Besides, in series [2], the “colonic lamina propria hematopoietic cell populations” value is reported as “not altering” and the “colonic caspase-1 activation” value is recorded as “reduced”. In addition, in series [3], the “composition of anaerobic microbiota cultures” value is reported as “did not feature significant compositional alterations”. Also, the “composition of the intestinal microbiota” value in series [4] (WT mice) is on record as “induced compositional changes”.

Consider `NCCS(=O)(=O)O` [taurine], for which the “organoid (spheroid) growth or morphology” value in series [1] is “not affecting”. Besides, the IL-18 secretion result in series [1] (WT organoids) is reported as “induced”; in series [2] (colon explants from WT mice drinking for 14 days), “marked activation”. For the same molecule, in series [2] (Asc-/- or Nlrp6-/- mice drinking taurine for 14 days), the IL-18 induction result is given as “no IL-18 induction”. The “colonic lamina propria hematopoietic cell populations” value in series [2] is recorded as “not accompanied by alterations”. For the same molecule, the “colonic caspase-1 activation” value in series [2] is recorded as “marked activation”. Also, the “IL-18 mRNA levels” value in series [2] (colon of WT mice drinking for 14 days) is “not affecting”. Also, the “epithelial Ang4 production” value in series [2] (sorted epithelial cells from WT mice drinking for 14 days) is given as “marked activation”. Moreover, in series [3], the “composition of anaerobic microbiota cultures” value was “did not feature significant compositional alterations”. Besides, the “composition of the intestinal microbiota” value in series [4] (Asc-/- or Nlrp6-/- mice) is “did not occur”; in series [4] (WT mice), “induced compositional changes”.
